In US8974834B2, “Method for producing reservoir layer for hoof treatment and reservoir layer” (Ecolab USA Inc., priority 2010, dated 2015):

Tests used:
[1] = Formation of a precipitate on mixing a surfactant with aqueous polyaluminium chloride/glutaraldehyde solution; format: physicochemical; conditions: mixed with aqueous solution (a) containing polyaluminium chloride and 7% glutaraldehyde
Procedure: (§1) 50 ml of an aqueous solution (a) containing approximately 31.5 weight % polyaluminium chloride (dialuminum chloride pentahydroxide), 7% glutaraldehyde was mixed with 10 g Texapon®NSO (C12-C14 alkyl ether sulfate with 2 mole EO). Before mixing the aluminium content of the aqueous solution (a) was about 9.5 weight %. […] The white precipitate was analyzed with respect to its contents of glutaraldehyde, Texapon®NSO. The content of polyaluminium chloride was analyzed by the content of Al-ions by XRF.
50 ml of an aqueous solution (a) containing 10% polyaluminium chloride and 7% glutaraldehyde was mixed with 50 ml of an aqueous solution (b) containing 10 weight % dodecylbenzenesulphonic acid. Before mixing the aluminium content of the aqueous solution (a) was about 3 weight %.
50 ml of an aqueous solution (a) containing 10% polyaluminium chloride, 7% glutaraldehyde was mixed with 50 ml of an aqueous solution (b) containing 10 weight % N-alkyl(C12-C16)-N-benzyl-N,N-dimethylammonium chloride (Barquat®DM-50).

[2] = Chemical analysis of the precipitate (contents of glutaraldehyde and Texapon NSO; Al by XRF); format: physicochemical; conditions: white precipitate from 50 ml solution (a) (31.5 weight % polyaluminium chloride, 7% glutaraldehyde) mixed with 10 g Texapon NSO
Procedure: as §1

SMILES | formation of a precipitate upon mixing [1] | quantified values (content in the precipitate) [2]
CCCCCCCCCCCCc1ccc(S(=O)(=O)O)cc1 [dodecylbenzenesulphonic acid] | white solid immediately was formed | –
O=CCCCC=O [glutaraldehyde] | – | 3.7%
